Laboratory results published in patent US8329699B2, “Pyrrolopyrazine kinase inhibitors” (Hoffmann-La Roche Inc., priority 2010, dated 2012).
Structures can show the parent of a compound that is named as a salt.

Key:
[1] = target: T1, JAK3: Recombinant human kinase domain (h-jak3-sf21-c) (Homo sapiens, UniProt P52333); assay: Determination of IC50 of Janus Kinase (JAK) inhibition, JAK3 (radioactive end-point assay with 33P-ATP); format: biochemical; conditions: ATP 1.5 uM, peptide 50 uM, 20 minutes, room temperature
T1 construct: JAK3: Recombinant human kinase domain from Millipore (Cat # 14-629) or prepared; purchased Millipore 14-629
T1 sequence (P52333 822-1111 limits assumed): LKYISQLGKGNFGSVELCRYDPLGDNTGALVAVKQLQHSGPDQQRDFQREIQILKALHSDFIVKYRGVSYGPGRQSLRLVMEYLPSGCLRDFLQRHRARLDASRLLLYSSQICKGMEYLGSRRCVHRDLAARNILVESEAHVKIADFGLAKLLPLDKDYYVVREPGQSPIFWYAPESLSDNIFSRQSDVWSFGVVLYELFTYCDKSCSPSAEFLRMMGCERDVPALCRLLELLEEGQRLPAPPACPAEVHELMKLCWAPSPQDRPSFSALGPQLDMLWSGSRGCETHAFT
Source text: Determination of IC50 of Janus Kinase (JAK) Inhibition:
Enzymes and peptide substrate used are described below: • JAK1: Recombinant human kinase domain from Invitrogen (Cat # PV4774) • JAK3: Recombinant human kinase domain from Millipore (Cat # 14-629) or prepared. • JAK2: Recombinant human kinase domain from Millipore (Cat # 14-640) • Substrate: N-terminally biotinylated 14-mer peptide derived from activation loop of JAK1 with sequence of the peptide substrate: Biotin-[…]
Assay conditions used are described below: • Assay Buffer: JAK Kinase Buffer: 50 mM Hepes [pH 7.2], 10 mM MgCl2, 1 mM DTT, 1 mg/mL BSA. The assay is carried out in this buffer. • Assay Format The kinase activity of all three JAK kinases is measured using a radioactive, end-point assay and with trace amounts of^33P-ATP. The assays are carried out in 96-well polypropylene plates. Experimental Method:
All concentrations are final in the reaction mixture and all incubations are carried at room temperature. Assay steps are described below: • 1) Compounds are serially diluted in 100% DMSO typically at a 10× starting concentration of 1 mM. Final concentration of DMSO in the reaction is 10%. • 2) Compounds are preincubated with enzyme (0.5 nM JAK3 (commercially available), 0.2 nM JAK3 (prepared), 1 nM JAK2, 5 nM JAK1) for 10 minutes. • 3) Reactions are initiated by the addition of a cocktail of the two substrates (ATP and peptide premixed in the JAK Kinase Buffer). In the JAK2/JAK3 assays, ATP and the peptide are used at concentrations of 1.5 uM and 50 uM, respectively. JAK1 assay is carried out at an ATP concentration of 10 uM and a peptide concentration of 50 uM. • 4) The duration of the assay for JAK2 and JAK3 is 20 minutes. JAK1 assay is carried out for 40 minutes. With all three enzymes, reactions are terminated by the addition of 0.5M EDTA to a final concentration of 100 mM. • 5) 25 ul of terminated reactions are transferred to 150 ul of a 7.5% (v/v) slurry of streptavidin-coated sepharose beads in MgCl2- and CaCl2-free 1× Phosphate Buffered Saline containing 50 mM of EDTA in 96-well, 1.2 um MultiScreen-BV filter plates. • 6) After a 30-minute incubation, the beads are washed under vacuum with the following buffers: • a. 3 to 4 washes with 200 ul of 2M NaCl. • b. 3 to 4 washes with 200 ul of 2M NaCl plus 1% (v/v) phosphoric acid. • c. 1 wash with water. • 7) Washed plates are dried in a 60° C. oven for between 1 to 2 hours. • 8) 70 ul of Microscint 20 scintillation fluid is added to each well of filter plates and after at least 30 minutes of incubation, radioactive counts are measured in a Perkinelmer microplate scintillation counter.

| SMILES | melting point [°C] | IC50 [1] [µM] |
| --- | --- | --- |
| CC(C)(O)C1(NC(=O)c2c[nH]c3ncc(C4CC4)nc23)CCNC1 (centres unmarked) (as salt: hydrochloride) [Compound I-17, 2-Cyclopropyl-5H-pyrrolo[2,3-b]pyrazine-7-carboxylic acid [3-(1-hydroxy-1-methyl-ethyl)-pyrrolidin-3-yl]-amide] | 200 to 203 |  |
| C[C@]1(O)CCC[C@@H]1NC(=O)c1c[nH]c2ncc(C3CC3)nc12 (relative stereo) [Compound I-11, 2-Cyclopropyl-5H-pyrrolo[2,3-b]pyrazine-7-carboxylic acid ((trans)-2-hydroxy-2-methyl-cyclopentyl)-amide] | 260 to 262 | 0.0129 |
| N#C[C@@H]1CCC[C@@H]1NC(=O)c1c[nH]c2ncc(C3CC3)nc12 (relative stereo) [Compound I-25, 2-Cyclopropyl-5H-pyrrolo[2,3-b]pyrazine-7-carboxylic acid ((cis)-2-cyano-cyclopentyl)-amide] | > 300 | 0.01 |
| O=C(NC1CCOCC1)c1c[nH]c2ncc(C3CC3)nc12 [Compound I-1, 2-Cyclopropyl-5H-pyrrolo[2,3-b]pyrazine-7-carboxylic acid (tetrahydro-pyran-4-yl)-amide] | > 300 | 0.042 |
| O=C(NC1(CO)CCOCC1)c1c[nH]c2ncc(C3CC3)nc12 [Compound I-2, 2-Cyclopropyl-5H-pyrrolo[2,3-b]pyrazine-7-carboxylic acid (4-hydroxymethyl-tetrahydro-pyran-4-yl)-amide] | 294 to 296 | 0.674 |
| O=C(NC1(CO)CCCC1)c1c[nH]c2ncc(C3CC3)nc12 [Compound I-3, 2-Cyclopropyl-5H-pyrrolo[2,3-b]pyrazine-7-carboxylic acid (1-hydroxymethyl-cyclopentyl)-amide] | 272 to 274 | 0.0442 |
| CC1(C)OCCC1NC(=O)c1c[nH]c2ncc(C3CC3)nc12 (centres unmarked) [Compound I-4, 2-Cyclopropyl-5H-pyrrolo[2,3-b]pyrazine-7-carboxylic acid (2,2-dimethyl-tetrahydro-furan-3-yl)-amide] | > 300 | 0.0053 |
| N#Cc1cccc(NC(=O)c2c[nH]c3ncc(C4CC4)nc23)c1 [Compound I-5, 2-Cyclopropyl-5H-pyrrolo[2,3-b]pyrazine-7-carboxylic acid (3-cyano-phenyl)-amide] | 272 to 274 | 0.735 |
| O=C(NC1CCCOC1)c1c[nH]c2ncc(C3CC3)nc12 (centres unmarked) [Compound I-6, 2-Cyclopropyl-5H-pyrrolo[2,3-b]pyrazine-7-carboxylic acid (tetrahydro-pyran-3-yl)-amide] | > 300 | 0.0156 |
| CC1(C)CCCC1NC(=O)c1c[nH]c2ncc(C3CC3)nc12 (centres unmarked) [Compound I-7, 2-Cyclopropyl-5H-pyrrolo[2,3-b]pyrazine-7-carboxylic acid (2,2-dimethyl-cyclopentyl)-amide] | > 300 | 0.0011 |
| O=C(Nc1cccc(C(F)(F)F)c1)c1c[nH]c2ncc(C3CC3)nc12 [Compound I-8, 2-Cyclopropyl-5H-pyrrolo[2,3-b]pyrazine-7-carboxylic acid (3-trifluoromethyl-phenyl)-amide] | 271.1 to 272.9 | 0.963 |
| Cc1ccc(C#N)cc1NC(=O)c1c[nH]c2ncc(C3CC3)nc12 [Compound I-9, 2-Cyclopropyl-5H-pyrrolo[2,3-b]pyrazine-7-carboxylic acid (5-cyano-2-methyl-phenyl)-amide] | 280 to 284 | 0.157 |
| N#CC1(NC(=O)c2c[nH]c3ncc(C4CC4)nc23)CC1 [Compound I-10, 2-Cyclopropyl-5H-pyrrolo[2,3-b]pyrazine-7-carboxylic acid (1-cyano-cyclopropyl)-amide] | > 300 | 0.524 |
| CC(C)(O)C1(NC(=O)c2c[nH]c3ncc(C4CC4)nc23)CCCC1 [Compound I-12, 2-Cyclopropyl-5H-pyrrolo[2,3-b]pyrazine-7-carboxylic acid [1-(1-hydroxy-1-methyl-ethyl)-cyclopentyl]-amide] | 232 to 234 | 0.0497 |
| CC(C)(O)C1(NC(=O)c2c[nH]c3ncc(C4CC4)nc23)CCC1 [Compound I-13, 2-Cyclopropyl-5H-pyrrolo[2,3-b]pyrazine-7-carboxylic acid [1-(1-hydroxy-1-methyl-ethyl)-cyclobutyl]-amide] | 264 to 266 | 0.0427 |
| CC(C)(O)C1(NC(=O)c2c[nH]c3ncc(C4CC4)nc23)CCCCC1 [Compound I-14, 2-Cyclopropyl-5H-pyrrolo[2,3-b]pyrazine-7-carboxylic acid [1-(1-hydroxy-1-methyl-ethyl)-cyclohexyl]-amide] | 228 to 230 | 0.0389 |
| O=C(N[C@H]1CCOC[C@@H]1O)c1c[nH]c2ncc(C3CC3)nc12 [Compound I-15, 2-Cyclopropyl-5H-pyrrolo[2,3-b]pyrazine-7-carboxylic acid ((3R,4S)-3-hydroxy-tetrahydro-pyran-4-yl)-amide] |  | 0.423 |
| CC1(C)COCC1NC(=O)c1c[nH]c2ncc(C3CC3)nc12 (centres unmarked) [Compound I-16, 2-Cyclopropyl-5H-pyrrolo[2,3-b]pyrazine-7-carboxylic acid (4,4-dimethyl-tetrahydro-furan-3-yl)-amide] | > 300 | 0.0098 |
| CC(C)(O)C1(NC(=O)c2c[nH]c3ncc(C4CC4)nc23)CCNC1 (centres unmarked) [Compound I-17, 2-Cyclopropyl-5H-pyrrolo[2,3-b]pyrazine-7-carboxylic acid [3-(1-hydroxy-1-methyl-ethyl)-pyrrolidin-3-yl]-amide] |  | 10 |
| CC(C)(O)C1(NC(=O)c2c[nH]c3ncc(C4CC4)nc23)CCOC1 (centres unmarked) [Compound I-18, 2-Cyclopropyl-5H-pyrrolo[2,3-b]pyrazine-7-carboxylic acid [3-(1-hydroxy-1-methyl-ethyl)-tetrahydro-furan-3-yl]-amide] | 213 to 215 | 0.342 |
| CC1(C)CCN(S(C)(=O)=O)CC1NC(=O)c1c[nH]c2ncc(C3CC3)nc12 (centres unmarked) [Compound I-35, 2-Cyclopropyl-5H-pyrrolo[2,3-b]pyrazine-7-carboxylic acid (1-methanesulfonyl-4,4-dimethyl-piperidin-3-yl)-amide] |  | 0.0021 |
| CCn1cc(-c2cnc3[nH]cc(C(=O)NC4CCCCC4(C)C)c3n2)cn1 (centres unmarked) [Compound I-39, 2-(1-Ethyl-1H-pyrazol-4-yl)-5H-pyrrolo[2,3-b]pyrazine-7-carboxylic acid (2,2-dimethyl-cyclohexyl)-amide] |  | 0.0003 |
| CC(=O)N[C@@H]1CCc2ccc(Oc3cnc4[nH]cc(C(=O)NC5CCCCC5)c4n3)cc21 [Compound I-40, 2-((R)-3-Acetylamino-indan-5-yloxy)-5H-pyrrolo[2,3-b]pyrazine-7-carboxylic acid cyclohexylamide] |  | 0.0502 |
| CC(=O)N[C@@H]1CCc2ccc(Oc3cnc4[nH]cc(C(=O)NC5CCS(=O)(=O)CC5)c4n3)cc21 [Compound I-41, 2-((R)-3-Acetylamino-indan-5-yloxy)-5H-pyrrolo[2,3-b]pyrazine-7-carboxylic acid (1,1-dioxo-hexahydro-1λ6-thiopyran-4-yl)-amide] |  | 2.16 |
